According to patent US20050009789A1, “Cyclooxygenase inhibition with nitroxyl” (The Government of the USA as represented by the Secretary …, priority 2003, published 2005):
Where “and” joins values, the source holds several entries; their conditions need not be identical. Equal values may be shown once.

Assays:
[1] = molecular target: T1, COX-1 (Ovis aries, UniProt P05979); assay: COX-1 inhibition, prostaglandin (PGF2α) enzyme immunoassay; format: biochemical
T1 construct: purchased Cayman Chemical #560101
T1 sequence (P05979 25-600): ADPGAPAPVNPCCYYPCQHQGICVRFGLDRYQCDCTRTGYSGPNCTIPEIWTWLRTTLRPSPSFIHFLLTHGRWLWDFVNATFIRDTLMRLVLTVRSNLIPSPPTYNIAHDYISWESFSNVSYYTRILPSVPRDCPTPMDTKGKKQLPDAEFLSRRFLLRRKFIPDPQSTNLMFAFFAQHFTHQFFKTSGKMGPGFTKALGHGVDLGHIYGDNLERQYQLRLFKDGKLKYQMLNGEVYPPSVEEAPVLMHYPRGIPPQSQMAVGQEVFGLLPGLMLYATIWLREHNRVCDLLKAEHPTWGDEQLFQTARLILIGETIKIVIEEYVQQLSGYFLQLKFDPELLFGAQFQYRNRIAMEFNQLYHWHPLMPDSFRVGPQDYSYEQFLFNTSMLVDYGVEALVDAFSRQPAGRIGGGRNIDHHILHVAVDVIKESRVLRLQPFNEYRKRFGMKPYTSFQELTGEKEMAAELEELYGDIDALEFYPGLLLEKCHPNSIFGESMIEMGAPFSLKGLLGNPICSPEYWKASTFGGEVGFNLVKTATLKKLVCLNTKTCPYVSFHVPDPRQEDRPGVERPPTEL
Excerpt: (§1) In some cases, screening in the latter method (measuring prostaglandin production) is accomplished using an enzyme immunoassay (EIA) where COX systems include COX-1 or COX-2, an EIA reaction buffer, Heme, and either a control solution, such as NaOH, for control systems or inhibitor solutions of the nitroxyl donor in NaOH having a range of progressively increasing concentrations of the nitroxyl-donating compound. These systems are reacted with arachidonic acid for a period typically of about five to ten minutes. The COX reactions are stopped in each system, for example, by the addition of hydrochloric acid (HCl).
(§2) The relative amounts prostaglandins, such as PGF2α, in each system are measured with an EIA kit. The EIA measures the amounts of prostaglandins in the systems based on binding to an assay antibody. Binding is determined by absorbance, for example, absorbance at 405 nm, with a plate reader, such as a Perkin Elmer plate reader. High binding results in low absorbance indicating low inhibition, while low binding results in high absorbance indicating high inhibition.
(§3) Once the inhibitor and control systems are prepared they are diluted in the EIA buffer at various dilution ratios, such as 1:1000, 1:2000, and 1:4000 and added to wells of the plate. The plate also contains prostaglandin (PG) standard systems, non-specific binding (NSB) systems, background COX systems, and zero binding (B0) systems, which are used to calibrate the EIA. PG standard systems are prepared at various progressively increasing concentrations of PG, for example 15.6, 31.3, 62.5, 125, 250, 500, 1000, and 2000 PG/mL. Background COX systems contain either boiled COX-1 or COX-2 diluted in EIA reaction buffer. NSB, and B0 systems include only the EIA buffer. Prostaglandin screening acetylcholinase tracer (reconstituted in the EIA buffer) is added to each system. Prostaglandin screening antiserum (reconstituted in the EIA buffer) is added to each system other than the NSB system. Typically, the plate is incubated from several hours to a day, such as from 4 to 24 hours at room temperature (about 22° C.). Ellman's reagent is added to each system in each well and the plate is agitated, such as on an orbital shaker, and protected from light, for example by covering with aluminum foil, for about an hour. The plate is then read on a plate reader, such as a Perkin Elmer plate reader.
(§4) An average value for the absorbance of the NSB systems is determined and this absorbance is used to correct the reading of other systems for NSB (by subtracting the average NSB absorbance). An average value for the absorbance of background COX also is determined and absorbance is later used to correct other systems for background COX levels.
(§5) An average value for B0 is obtained and NSB corrected. Average values for absorbance of each PG standard system are obtained and NSB corrected. The percentage of prostanoid binding is determined by dividing the average NSB corrected absorbance (binding (B)) for each PG standard system by the average NSB corrected absorbance for B0 systems (percentage equals B/B0*100). A standard curve is prepared with % B/B0 on the y axis and the prostaglandin concentration (PG/mL) on the x axis. Then the average % B/B0 for the background, control, and inhibitor systems are determined for each concentration tested. The PG concentration for each of these systems is determined by finding the point on the standard curve that corresponds to the determined % B/B0, determining the corresponding PG concentration on the x axis, and multiplying this concentration by the dilution factor used to prepare the system. To correct for background COX the PG concentration of the background COX-1 or COX-2 systems are subtracted from the COX-1 and COX-2 inhibitor and control systems, respectively. The percentage of inhibition is determined dividing the PG concentration for inhibitor systems by the PG concentration for control systems and multiplying by 100. […]

[2] = molecular target: T2, COX-2 (Ovis aries, UniProt P79208); assay: COX-2 inhibition, prostaglandin (PGF2α) enzyme immunoassay; format: biochemical
T2 construct: purchased Cayman Chemical #560101
T2 sequence (P79208 17-603): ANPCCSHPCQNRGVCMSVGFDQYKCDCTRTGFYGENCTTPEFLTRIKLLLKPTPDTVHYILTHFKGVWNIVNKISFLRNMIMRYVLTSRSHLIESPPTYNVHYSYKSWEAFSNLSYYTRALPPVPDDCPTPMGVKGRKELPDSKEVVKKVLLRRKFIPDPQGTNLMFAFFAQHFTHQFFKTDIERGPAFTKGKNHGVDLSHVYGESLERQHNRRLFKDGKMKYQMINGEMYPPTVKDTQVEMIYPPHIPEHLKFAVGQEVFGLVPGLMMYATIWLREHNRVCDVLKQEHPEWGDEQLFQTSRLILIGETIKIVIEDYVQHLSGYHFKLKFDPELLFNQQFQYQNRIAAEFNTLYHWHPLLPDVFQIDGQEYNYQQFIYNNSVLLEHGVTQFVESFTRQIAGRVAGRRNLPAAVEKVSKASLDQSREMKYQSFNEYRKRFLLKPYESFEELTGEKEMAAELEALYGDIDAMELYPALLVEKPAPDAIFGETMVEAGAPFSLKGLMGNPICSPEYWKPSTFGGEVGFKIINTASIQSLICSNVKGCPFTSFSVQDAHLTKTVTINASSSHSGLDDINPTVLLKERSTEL
Excerpt: as §1, §2, §3, §4, §5

[3] = Nitroxyl donation pH; format: physicochemical
Excerpt: “Nitroxyl donation pH” is the pH at which and above which a nitroxyl-donating compounds donates nitroxyl.
Further, compounds are easily tested for nitroxyl donation with routine experiments. Although it is impractical to directly measure whether nitroxyl is donated, several tests are accepted for determining whether a compound donates nitroxyl. For example, the compound of interest can be placed in solution, for example in water, in a sealed container. After sufficient time for disassociation has elapsed, such as from several minutes to several hours, the headspace gas is withdrawn and analyzed to determine its composition, such as by gas chromatography and/or mass spectroscopy. […] Nitroxyl donation also can be detected by exposing the target donor to metmyoglobin (Mb^3+). Nitroxyl reacts with Mb^3+ to form an Mb^2+—NO complex, which can be detected by changes in the ultraviolet/visible spectrum or by Electron Paramagnetic Resonance (EPR). […]
Testing for nitroxyl donation in some cases is performed at a range of pHs to determine the nitroxyl donation pH of the nitroxyl-donating compound. […] After the lowest pH at which nitroxyl donation occurs in a first set of tests is found, additional tests can be performed with narrower ranges of pH around the first determined nitroxyl donation pH to obtain a more specific nitroxyl donation pH. […]

[4] = Example 1, Angeli's salt concentration 0.001 μM, 1:2000 dilution
[5] = Example 1, Angeli's salt concentration 1.0 μM, 1:2000 dilution
[6] = Example 1, Angeli's salt concentration 10.0 μM, 1:2000 dilution
[7] = Example 1, Angeli's salt concentration 500.0 μM, 1:2000 dilution
[8] = Example 2, Angeli's salt concentration 0.100 μM, data below about 50 μM called unreliable
[9] = Example 2, Angeli's salt concentration 100.0 μM
[10] = Example 2, Angeli's salt concentration 500.0 μM
[11] = Example 2, Angeli's salt concentration 1000.0 μM
[12] = Example 3, nitroxyl donor concentration 25 μM
[13] = Example 3, nitroxyl donor concentration 50 μM
[14] = Example 3, nitroxyl donor concentration 75 μM
[15] = Example 3, nitroxyl donor concentration 100 μM
[16] = Example 3, nitroxyl donor concentration 1000 μM

## [Na+].[Na+].[O-][N+]([O-])=NO [Angeli's salt, Na2ON(O)NO]
[1]; Example 1, read from FIG. 1
  IC50: ~600 µM
[1]; [4]
  Percentage COX-1 Inhibition: 0.0%
[1]; [5]
  Percentage COX-1 Inhibition: 0.0%
[1]; [6]
  Percentage COX-1 Inhibition: 0.0%
[1]; Example 1, Angeli's salt concentration 100.0 μM, 1:2000 dilution
  Percentage COX-1 Inhibition: 18.3%
[1]; [7]
  Percentage COX-1 Inhibition: 40.2%
[1]; Example 1, Angeli's salt concentration 1000.0 μM, 1:2000 dilution
  Percentage COX-1 Inhibition: 95.4%
[1]; Example 1, concentrations from about 50 μM to about 100 μM
  COX-1 activity inhibited: ≤ 19%
[1]; Example 2, reasonable estimate
  IC50: 200 to 250 µM
[1]; Example 2, Angeli's salt concentration 0.001 μM, data below about 50 μM called unreliable
  Percentage COX-1 Inhibition: 97.5%
[1]; [8]
  Percentage COX-1 Inhibition: 24.7%
[1]; Example 2, Angeli's salt concentration 1.0 μM, data below about 50 μM called unreliable
  Percentage COX-1 Inhibition: 57.5%
[1]; Example 2, Angeli's salt concentration 50.0 μM
  Percentage COX-1 Inhibition: 16.4%
[1]; [9]
  Percentage COX-1 Inhibition: 45.7%
[1]; [10]
  Percentage COX-1 Inhibition: 62.5%
[1]; [11]
  Percentage COX-1 Inhibition: 68.6%
[2]; Example 1
  COX-1/COX-2 IC50 ratio: about 0.08
[2]; Example 1, read from FIG. 1
  IC50: ~50 µM
[2]; [4]
  Percentage COX-2 inhibition: 0.0%
[2]; [5]
  Percentage COX-2 inhibition: 34.6%
[2]; [6]
  Percentage COX-2 inhibition: 28.8%
[2]; Example 1, Angeli's salt concentration 100.0 μM, 1:2000 dilution, 100 µM
  Percentage COX-2 inhibition: 100% and 99.2%
[2]; [7]
  Percentage COX-2 inhibition: 86.4%
[2]; Example 2, reasonable estimate
  IC50: ~50 µM
[2]; [8]
  Percentage COX-2 inhibition: 98.9%
[2]; [9]
  Percentage COX-2 inhibition: 98%
[2]; [10]
  Percentage COX-2 inhibition: 105.7%
[2]; [11]
  Percentage COX-2 inhibition: 106%
[2]; [12]
  Percentage COX-2 inhibition: 5.4%
[2]; [13]
  Percentage COX-2 inhibition: 13.7%
[2]; [14]
  Percentage COX-2 inhibition: 49.2%
[2]; [15]
  Percentage COX-2 inhibition: 59.9%
[2]; [16]
  Percentage COX-2 inhibition: 60.4%
[2]; one particular example (detailed description)
  COX-2/COX-1 IC50 ratio: about 0.08
[3]
  nitroxyl donation pH (pH at which and above which nitroxyl is donated): about 3

## CC(C)N[N+]([O-])=N[O-].[Na+] [IPA/NO, Na(CH3)2C(H)N(H)N(O)NO]
[2]; Example 3, 25 to 1000 μM
  COX-2 inhibition, overall trend compared to Angeli's salt: more effective inhibitor of COX-2 than Angeli's salt
[2]; [12]
  Percentage COX-2 inhibition: 6.7%
[2]; [13]
  Percentage COX-2 inhibition: 59.5%
[2]; [14]
  Percentage COX-2 inhibition: 46.4%
[2]; [15]
  Percentage COX-2 inhibition: 62.2%
[2]; [16]
  Percentage COX-2 inhibition: 86.8%
[3]
  nitroxyl donation pH (pH at which and above which nitroxyl is donated): about 5.5
